Assay results: patent publication US20030036049A1, “Optical method for testing sensitivity of cells” (MEDIS EL LTD., priority 2001, published 2003)

How the values were obtained:
[1] = test system: T47D human breast cancer cells; test: Rh123 fluorescence intensity, Electro-optical scanner (CellScan); assay type: cell-based
Description: (§1) About 2×10^5 cells were plated on 6 well-plates and left overnight to adhere. Two different concentrations of different drugs were added for a period of 24, 48 and 72 hours and then cells were harvested with trypsin, centrifuged, and resuspended in culture medium until staining.
(§2) Cell staining and loading: Three samples were prepared for each treatment at a specific time point and stained each with a different dye: fluorescein diacetate (FDA), rhodamine 123 (Rh123), and acridine orange (AO). […]
Rh123 (1 microgram/milliliter final concentration) was added to cells suspended in culture medium for 30 minutes at 37° C. Then the cells were washed twice with cold PBS supplemented with Mg^+2 and Ca^+2, loaded on the cell carrier and fluorescence intensity and polarization were measured by an Argon laser-based Electro-optical scanner. […]
(§3) For the excitation of FDA-stained cells an He/Cd laser was utilized (442 nm, excitation power of 4.5 microwatt) and emission measured at 527 nm. For the detection of AO and Rh123-stained cells an Argon laser was utilized (488 nm, excitation power of 15 microwatt) and emission measured at 530 nm.
(§4) The fluorescence emission of an area containing 20×20 wells was measured using a preset photon counting mode in which the same number of photons is counted for each cell (10,000), canceling differences in precision from strong and weak-emitting cells. […]

[2] = test system: T47D human breast cancer cells; test: AO fluorescence intensity, Electro-optical scanner (CellScan); assay type: cell-based; details: FIG. 6 panels 195-197
Description: as §1
(§5) Cell staining and loading: Three samples were prepared for each treatment at a specific time point and stained each with a different dye: fluorescein diacetate (FDA), rhodamine 123 (Rh123), and acridine orange (AO).
(§6) AO is usually used as a direct probe for nucleic acids in fixed or permeabilized cells. When used under appropriate conditions of concentration and pH it gives bright green fluorescence when bound to double-stranded DNA and red deep fluorescence when bound to single strand RNA and can serve for estimation of cellular DNA content and transcriptional activity. AO was added directly to the cell carrier loaded with cells for 5 minutes at a final concentration of 10 microgram/milliliter, washed twice directly on the grid and measured on an Argon laser-based Electro-optical scanner. […]
(§7) For the excitation of FDA-stained cells an He/Cd laser was utilized (442 nm, excitation power of 4.5 microwatt) and emission measured at 527 nm. For the detection of AO and Rh123-stained cells an Argon laser was utilized (488 nm, excitation power of 15 microwatt) and emission measured at 530 nm. […]

[3] = test system: T47D human breast cancer cells; test: FDA fluorescence polarization, Electro-optical scanner (CellScan); assay type: cell-based; details: FIG. 5 panel 191
Description: as §1, §2
(§8) Cells in suspension were stained for 5 minutes with FDA at a final concentration of 2.4 micromolar. The cells were then loaded on the cell carrier, washed twice with PBS supplemented with Mg^+2 and Ca^+2, and fluorescence intensity and polarization were measured by an He/Cd laser-based CellScan™ electro-optical scanner. […]
as §3, §4

[4] = test system: T47D human breast cancer cells; test: Viable cell count on hemocytometer with trypan blue exclusion; assay type: cell-based; details: low and high doses, 24, 48, 72 hours, FIG. 2 panel 181
Description: (§9) Cell culture: T80 and T47D human breast cancer cells were routinely cultured in DMEM supplemented with 10% fetal calf serum (FCS) (Biological Industries, Beit Haemek, Israel), 4 mM glutamine (Biological Ind.), 100 u/ml penicillin, 0.1 milligram/milliliter streptomycin, 12.5 units/milliliter nystatin (Biological Ind.) and 0.2 units/milliliter insulin (Lilly, Fegersheim, France).
as §1
(§10) Navelbine and 5-Fluorouracil (5FU) where added at low and high doses to T80 and T47D cells respectively for 24, 48, and 72 hours. The cells were counted on a hemocytometer, using trypan blue for exclusion of dead cells, for the purpose of Electro-optical scanner -independent estimation of drug efficacy.

[5] = test system: T80 human breast cancer cells; test: AO fluorescence intensity, Electro-optical scanner (CellScan); assay type: cell-based; details: one day after starting treatment, FIG. 6 panels 192-194
Description: as §1, §5, §6, §7

[6] = test system: T80 human breast cancer cells; test: FDA fluorescence polarization, Electro-optical scanner (CellScan); assay type: cell-based; details: FIG. 5 panel 190
Description: as §1, §2, §8, §3, §4

[7] = test system: T80 human breast cancer cells; test: Rh123 fluorescence intensity, Electro-optical scanner (CellScan)
[8] = test system: T80 human breast cancer cells; test: Viable cell count on hemocytometer with trypan blue exclusion; assay type: cell-based; details: low and high doses, 24, 48, 72 hours, FIG. 2 panel 180
Description: as §9, §1, §10

| SMILES | change in Rh123 fluorescence intensity versus control untreated cells ([1]; FIG. 3 panel 183) | change of mean fluorescence intensity of Rh123 stained cells, measured one-cell-at-a-time ([1]; FIG. 4 panels 187-189) | change of mean fluorescence intensity of AO stained cells, measured one-cell-at-a-time [2] | change of mean polarization of FDA fluorescence [3] | effect on number of viable cells counted (trypan blue exclusion) [4] | change of mean fluorescence intensity of AO stained cells, measured one-cell-at-a-time [5] | change of mean polarization of FDA fluorescence [6] | change in Rh123 fluorescence intensity versus control untreated cells ([7]; FIG. 3 panel 182) | change of mean fluorescence intensity of Rh123 stained cells, measured one-cell-at-a-time ([7]; one day after starting treatment, FIG. 4 panels 184-186) | effect on number of viable cells counted (trypan blue exclusion) [8] |
| --- | --- | --- | --- | --- | --- | --- | --- | --- | --- | --- |
| O=c1[nH]cc(F)c(=O)[nH]1 [5FU, 5-Fluorouracil] | no significant change in fluorescence intensity | no significant change of mean fluorescence intensity | no significant change of mean fluorescence intensity | no significant change of mean fluorescence polarization | mild and not significant effects | – | – | – | – | – |
| CCC1=C[C@@H]2CN(C1)Cc1c([nH]c3ccccc13)[C@@](C(=O)OC)(c1cc3c(cc1OC)N(C)[C@H]1[C@@](O)(C(=O)OC)[C@H](OC(C)=O)[C@]4(CC)C=CCN5CC[C@]31[C@@H]54)C2 [Navelbine] | – | – | – | – | – | decrease of mean fluorescence intensity | increase of mean polarization | decrease in Rh123 fluorescence intensity is obvious and markedly significant | decrease of mean fluorescence intensity | cytotoxic effect |
